{
  "source": "patent US8969415B2",
  "about": "“Intraocular drug delivery systems” (Allergan, Inc., priority 2006, dated 2015)",
  "key": {"[1]": {"test_system": "specific receptor target of brimonidine located in retina and iris-ciliary body"}, "[2]": {"conditions": "in vivo"}},
  "note": "Structures can show the parent of a compound that is named as a salt.",
  "data": [
    {"smiles": "Brc1c(NC2=NCCN2)ccc2nccnc12", "note": "[brimonidine, 5-bromo-6-(2-imidazolidinylideneamino)quinoxaline tartrate]", "values": [
      {"measurement": "brimonidine concentration required for optic neuroprotection", "setting": "[1]", "result": "≥ 2", "unit": "nM"},
      {"measurement": "vitreal clearance", "setting": "[2]", "result": 0.487, "unit": "mL/day"}
    ]}
  ]
}
